Where a name gives a salt, the structure may show the parent alone.
Each molecule was assayed on HCT 116 cells (human colon carcinoma, ATCC-No. CCl-247) (assay: CellTiter-Glo Luminescent Cell Viability Assay in HCT 116 cells). Conditions: HCT 116 cell viability, CellTiter-Glo (ATP luminescence), 5 days (120 h) incubation, 10 concentrations 30 μM to 0.0015 μM, triplicate.
Type: cell-based
From the text: CellTiter-Glo™ Assay in HCT 116 Cells
The CellTiter-Glo™ Luminescent Cell Viability Assay (Promega) is a homogeneous method of determining the number of viable cells in culture based on quantitation of the ATP present, which signals the presence of metabolically active cells.
HCT 116 cells (human colon carcinoma, ATCC-No. CCl-247) were cultivated in RPMI 1640 medium with GlutaMAX™ I (Invitrogen, Cat-No. 61870-010), 5% Fetal Calf Serum (FCS, Sigma Cat-No. F4135 (FBS)); 100 Units/ml penicillin/100 μg/ml streptomycin (=Pen/Strep from Invitrogen Cat. No. 15140). For the assay the cells were seeded in 384 well plates, 1000 cells per well, in the same medium. The next day the test compounds were added in various concentrations ranging from 30 μM to 0.0015 μM (10 concentrations, 1:3 diluted). After 5 days the CellTiter-Glo™ assay was done according to the instructions of the manufacturer (CellTiter-Glo™ Luminescent Cell Viability Assay, from Promega). In brief the cell-plate was equilibrated to room temperature for approximately 30 minutes and than the CellTiter-Glo™ reagent was added. The contents were carefully mixed for 15 minutes to induce cell lysis. After 45 minutes the luminescent signal was measured in Victor 2, (scanning multiwell spectrophotometer, Wallac).
• Medium: RPMI 1640 with GlutaMAX™ I (Invitrogen, Cat-Nr. 61870), 5% FCS (Sigma Cat.-No. F4135), Pen/Strep (Invitrogen, Cat No. 15140). • HCT116 (ATCC-No. CCl-247): 1000 cells in 60 μl per well of 384 well plate (Greiner 781098, μClear-plate white) • After seeding incubate plates 24 h at 37° C., 5% CO2 2nd. Day: Induction (Treatment with Compounds, 10 Concentrations):
In order to achieve a final concentration of 30 μM as highest concentration 3.5 μl of 10 mM compound stock solution were added directly to 163 μl media. Then step e) of the dilution procedure described below, was followed.

Row | SMILES | IC50 [µM]
1 | O=C(NS(=O)(=O)c1ccc(N2CCN(c3ccccc3)CC2)nc1)c1ccc(F)cc1C(F)(F)F [Example 1-18, 6-(4-Phenyl-piperazin-1-yl)-pyridine-3-sulfonic acid 4-fluoro-2-trifluoromethyl-benzoylamide; sodium salt] | 1 to 10
2 | O=C(NS(=O)(=O)c1ccc(N2CCN(c3ccc(F)cc3)CC2)nc1)c1ccc(F)cc1Cl [Example 1-17, 6-[4-(4-Fluoro-phenyl)-piperazin-1-yl]-pyridine-3-sulfonic acid 2-chloro-4-fluoro-benzoylamide; sodium salt] | 1 to 10
3 | O=C(NS(=O)(=O)c1ccc(N2CCN(c3ccc(F)cc3)CC2)nc1)c1ccc(F)cc1C(F)(F)F [Example 1-7, 6-[4-(4-Fluoro-phenyl)-piperazin-1-yl]-pyridine-3-sulfonic acid 4-fluoro-2-trifluoromethyl-benzoylamide; ammonium salt] | 1 to 10
4 | Cc1cccc(N2CCN(c3ccc(S(=O)(=O)NC(=O)c4ccc(F)cc4C(F)(F)F)cn3)CC2)c1 [Example 1-3, 6-(4-m-Tolyl-piperazin-1-yl)-pyridine-3-sulfonic acid 4-fluoro-2-trifluoromethyl-benzoylamide; sodium salt] | 1 to 10
5 | O=C(NS(=O)(=O)c1ccc(N2CCN(c3ccc(F)cc3F)CC2)nc1)c1ccc(F)cc1C(F)(F)F [Example 1-20, 6-[4-(2,4-Difluoro-phenyl)-piperazin-1-yl]-pyridine-3-sulfonic acid 4-fluoro-2-trifluoromethyl-benzoylamide; sodium salt] | 1 to 10
6 | O=C(NS(=O)(=O)c1ccc(N2CCC3(CC2)OCCCO3)nc1)c1ccc(Cl)cc1C(F)(F)F [Example 1-2, 6-(1,5-Dioxa-9-aza-spiro[5.5]undec-9-yl)-pyridine-3-sulfonic acid 4-chloro-2-trifluoromethyl-benzoylamide; ammonium salt] | 4.28
7 | O=C(NS(=O)(=O)c1ccc(N2CCN(c3ccccc3)CC2)nc1)c1ccc(Cl)cc1Cl [Example 1-15, 6-(4-Phenyl-piperazin-1-yl)-pyridine-3-sulfonic acid 2,4-dichloro-benzoylamide; sodium salt] | 1 to 10
8 | COc1ccccc1N1CCN(c2ccc(S(=O)(=O)NC(=O)c3ccc(Cl)cc3C(F)(F)F)cn2)CC1 [Example 1-13, 6-[4-(2-Methoxy-phenyl)-piperazin-1-yl]-pyridine-3-sulfonic acid 4-chloro-2-trifluoromethyl-benzoylamide] | 1 to 10
9 | O=C(NS(=O)(=O)c1ccc(N2CCN(c3ccc(F)cc3)CC2)nc1)c1ccc(Cl)cc1Cl [Example 1-16, 6-[4-(4-Fluoro-phenyl)-piperazin-1-yl]-pyridine-3-sulfonic acid 2,4-dichloro-benzoylamide; sodium salt] | 1 to 10
10 | COc1cc(Cl)ccc1C(=O)NS(=O)(=O)c1ccc(N2CCN(c3ccccc3OC)CC2)nc1 [Example 1-8, 6-[4-(2-Methoxy-phenyl)-piperazin-1-yl]-pyridine-3-sulfonic acid 4-chloro-2-methoxy-benzoylamide; ammonium salt] | 1 to 10
11 | O=C(NS(=O)(=O)c1ccc(N2CCN(c3ccccn3)CC2)nc1)c1ccc(F)cc1C(F)(F)F [Example 1-6, 6-(4-Pyridin-2-yl-piperazin-1-yl)-pyridine-3-sulfonic acid 4-fluoro-2-trifluoromethyl-benzoylamide; ammonium salt] | 1 to 10
12 | COc1ccccc1N1CCN(c2ccc(S(=O)(=O)NC(=O)c3ccc(F)cc3Cl)cn2)CC1 [Example 1-14, 6-[4-(2-Methoxy-phenyl)-piperazin-1-yl]-pyridine-3-sulfonic acid 2-chloro-4-fluoro-benzoylamide; sodium salt] | 1 to 10
13 | COc1ccc(N2CCN(c3ccc(S(=O)(=O)NC(=O)c4ccc(Cl)cc4C(F)(F)F)cn3)CC2)cc1 [Example 1-9, 6-[4-(4-Methoxy-phenyl)-piperazin-1-yl]-pyridine-3-sulfonic acid 4-chloro-2-trifluoromethyl-benzoylamide] | 1 to 10
14 | COc1cc(Cl)ccc1C(=O)NS(=O)(=O)c1ccc(N2CCN(c3ccc(F)cc3)CC2)nc1 [Example 1-11, 6-[4-(4-Fluoro-phenyl)-piperazin-1-yl]-pyridine-3-sulfonic acid 4-chloro-2-methoxy-benzoylamide] | 1.25
15 | COc1cc(Cl)ccc1C(=O)NS(=O)(=O)c1ccc(N2CCN(c3ccccc3)CC2)nc1 [Example 1-4, 6-(4-Phenyl-piperazin-1-yl)-pyridine-3-sulfonic acid 4-chloro-2-methoxy-benzoylamide] | 1 to 10
16 | O=C(NS(=O)(=O)c1ccc(N2CCN(c3ccccc3F)CC2)nc1)c1ccc(F)cc1C(F)(F)F [Example 1-19, 6-[4-(2-Fluoro-phenyl)-piperazin-1-yl]-pyridine-3-sulfonic acid 4-fluoro-2-trifluoromethyl-benzoylamide; sodium salt] | 1 to 10
17 | COc1cc(Cl)ccc1C(=O)NS(=O)(=O)c1ccc(N2CCC3(CC2)OCCCO3)nc1 [Example 1-12, 6-(1,5-Dioxa-9-aza-spiro[5.5]undec-9-yl)-pyridine-3-sulfonic acid 4-chloro-2-methoxy-benzoylamide] | 1 to 10
18 | O=C(NS(=O)(=O)c1ccc(N2CCN(c3ccccc3)CC2)nc1)c1ccc(F)cc1Cl [Example 1-10, 6-(4-Phenyl-piperazin-1-yl)-pyridine-3-sulfonic acid 2-chloro-4-fluoro-benzoylamide] | 1 to 10
19 | O=C(NS(=O)(=O)c1ccc(N2CCN(c3ccccn3)CC2)nc1)c1ccc(Cl)cc1Cl [Example 1-1, 6-(4-Pyridin-2-yl-piperazin-1-yl)-pyridine-3-sulfonic acid 2,4-dichloro-benzoylamide; ammonium salt] | 3.35
20 | O=C(NS(=O)(=O)c1ccc(N2CCN(c3ccccn3)CC2)nc1)c1ccc(F)cc1Cl [Example 1-5, 6-(4-Pyridin-2-yl-piperazin-1-yl)-pyridine-3-sulfonic acid 2-chloro-4-fluoro-benzoylamide; ammonium salt] | 1 to 10

Reference: US7939532B2, “Heterocyclyl pyridyl sulfonamide derivatives, their manufacture and use as pharmaceutical agents” (Hoffmann-La Roche Inc., priority 2006, dated 2011)
